Laboratory results published in paper PMC11208742, “5,7,4′‐Trimethoxyflavone triggers cancer cell PD‐L1 ubiquitin–proteasome degradation and facilitates antitumor immunity by targeting HRD1” (MedComm, 2024).

Molecular target: T1, HRD1 (HMG-CoA reductase degradation protein 1) (Homo sapiens, UniProt Q86TM6)
T1 construct: gene SYVN1; GFP-tagged wild-type HRD1 expressed in 293T cells, cell lysate (MST); endogenous untagged HRD1 in RKO cell lysate (CETSA)
Assay: microscale thermophoresis, GFP-HRD1
Type: binding

T1 sequence (Q86TM6 whole entry): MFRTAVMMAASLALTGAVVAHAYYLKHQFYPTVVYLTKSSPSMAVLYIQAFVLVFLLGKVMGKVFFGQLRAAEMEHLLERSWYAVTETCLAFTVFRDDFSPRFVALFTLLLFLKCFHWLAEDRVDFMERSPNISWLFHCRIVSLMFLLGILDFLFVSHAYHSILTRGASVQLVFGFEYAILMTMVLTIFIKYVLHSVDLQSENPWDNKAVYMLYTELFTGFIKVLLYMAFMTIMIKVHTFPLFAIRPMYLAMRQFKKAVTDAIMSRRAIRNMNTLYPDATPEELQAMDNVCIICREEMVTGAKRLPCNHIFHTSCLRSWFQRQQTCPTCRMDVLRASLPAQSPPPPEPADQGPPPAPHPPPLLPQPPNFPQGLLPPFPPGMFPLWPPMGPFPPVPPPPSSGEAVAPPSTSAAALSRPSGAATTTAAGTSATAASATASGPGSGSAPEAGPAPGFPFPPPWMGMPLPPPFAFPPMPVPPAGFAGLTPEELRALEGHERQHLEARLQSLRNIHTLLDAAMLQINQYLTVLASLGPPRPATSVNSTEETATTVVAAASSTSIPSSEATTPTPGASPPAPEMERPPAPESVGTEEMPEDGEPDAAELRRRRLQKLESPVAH

Kd: 8.02 µM
SMILES: COc1ccc(-c2cc(=O)c3c(OC)cc(OC)cc3o2)cc1 [TF]
